What was measured:
HiBit-BRM fusion protein = molecular target: T1, HiBit-BRM fusion protein (Homo sapiens, UniProt P51531); experiment: HiBiT-BRM cell-based degradation assay (Nano-Glo HiBiT Lytic Detection, 24 h); conditions: HeLa cell line expressing HiBiT-BRM; for DC50: read-out: BRM HiBit Degradation IC50
T1 construct: expressed in transfected cells
In short: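 Luminescence from reconstituted NanoBiT luciferase in lysed HeLa HiBiT-BRM cells served as the measure of remaining BRM after 24 h treatment. Compounds were tested from 30 μM final downward in 3-fold steps. DMSO and 2 μM of a standard BRM/BRG1 degrader defined the scale limits.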

[1] = molecular target: T2, HiBit-BRG1 fusion protein (Homo sapiens, UniProt P51532); experiment: HiBiT-BRG1 cell-based degradation assay (Nano-Glo HiBiT Lytic Detection, 24 h); conditions: HeLa cell line expressing HiBit-BRG1 and LgBit; for Dmax: read-out: BRG1 HiBit Degradation Maximum (%); for DC50: read-out: BRMG1 HiBit Degradation IC50
T2 construct: expressed in transfected cells
T2 sequence (P51532 whole entry, the tested form may be a part): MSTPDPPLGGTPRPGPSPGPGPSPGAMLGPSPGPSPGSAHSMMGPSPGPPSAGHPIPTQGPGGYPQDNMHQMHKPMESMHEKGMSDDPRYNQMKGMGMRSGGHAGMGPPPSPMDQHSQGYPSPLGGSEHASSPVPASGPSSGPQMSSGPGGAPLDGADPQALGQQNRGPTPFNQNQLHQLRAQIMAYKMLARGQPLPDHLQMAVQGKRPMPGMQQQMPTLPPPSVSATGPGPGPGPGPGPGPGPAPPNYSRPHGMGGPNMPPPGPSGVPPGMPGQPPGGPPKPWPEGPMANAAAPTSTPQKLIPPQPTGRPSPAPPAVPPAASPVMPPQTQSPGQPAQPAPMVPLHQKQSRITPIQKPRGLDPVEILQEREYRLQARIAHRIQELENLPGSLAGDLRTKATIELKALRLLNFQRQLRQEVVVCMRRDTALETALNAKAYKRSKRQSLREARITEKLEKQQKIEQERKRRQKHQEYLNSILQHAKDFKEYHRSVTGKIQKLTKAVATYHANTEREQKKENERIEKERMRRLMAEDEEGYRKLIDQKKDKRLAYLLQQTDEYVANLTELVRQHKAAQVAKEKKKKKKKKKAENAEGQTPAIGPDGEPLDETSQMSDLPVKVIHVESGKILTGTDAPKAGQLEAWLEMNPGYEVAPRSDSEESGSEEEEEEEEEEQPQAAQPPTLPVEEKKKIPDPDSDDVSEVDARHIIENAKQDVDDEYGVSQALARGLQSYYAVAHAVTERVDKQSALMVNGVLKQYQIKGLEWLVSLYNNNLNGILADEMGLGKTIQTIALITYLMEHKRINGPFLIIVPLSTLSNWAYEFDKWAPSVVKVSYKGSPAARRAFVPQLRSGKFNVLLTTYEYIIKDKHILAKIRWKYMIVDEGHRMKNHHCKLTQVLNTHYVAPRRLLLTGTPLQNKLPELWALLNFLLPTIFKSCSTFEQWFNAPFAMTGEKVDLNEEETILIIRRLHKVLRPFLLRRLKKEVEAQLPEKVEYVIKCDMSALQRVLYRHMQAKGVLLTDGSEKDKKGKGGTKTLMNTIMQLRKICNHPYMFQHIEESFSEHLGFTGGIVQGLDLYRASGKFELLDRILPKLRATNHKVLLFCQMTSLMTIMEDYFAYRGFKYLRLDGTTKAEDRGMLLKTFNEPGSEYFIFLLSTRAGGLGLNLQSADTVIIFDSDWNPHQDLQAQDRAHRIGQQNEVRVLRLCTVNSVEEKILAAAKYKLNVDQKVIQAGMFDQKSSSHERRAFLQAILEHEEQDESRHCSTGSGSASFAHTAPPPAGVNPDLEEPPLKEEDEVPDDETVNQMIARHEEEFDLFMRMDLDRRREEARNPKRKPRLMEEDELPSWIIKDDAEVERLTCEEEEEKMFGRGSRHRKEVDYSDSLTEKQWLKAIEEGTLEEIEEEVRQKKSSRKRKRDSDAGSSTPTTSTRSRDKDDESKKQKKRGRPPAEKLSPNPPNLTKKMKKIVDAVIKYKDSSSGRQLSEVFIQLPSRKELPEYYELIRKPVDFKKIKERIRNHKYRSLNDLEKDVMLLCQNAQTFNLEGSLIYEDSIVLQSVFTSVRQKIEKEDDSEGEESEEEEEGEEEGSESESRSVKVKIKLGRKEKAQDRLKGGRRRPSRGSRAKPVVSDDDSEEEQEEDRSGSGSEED
In short: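 Luminescence from Nano-Glo HiBiT lytic detection, read after 24 h compound exposure, scored degradation in a stable HeLa HiBiT-BRG1/LgBit line seeded at 5000 cells/well. DMSO wells defined 0% and 2 μM known BRM/BRG1 degrader wells defined full degradation.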

T1 sequence (P51531 whole entry, the tested form may be a part): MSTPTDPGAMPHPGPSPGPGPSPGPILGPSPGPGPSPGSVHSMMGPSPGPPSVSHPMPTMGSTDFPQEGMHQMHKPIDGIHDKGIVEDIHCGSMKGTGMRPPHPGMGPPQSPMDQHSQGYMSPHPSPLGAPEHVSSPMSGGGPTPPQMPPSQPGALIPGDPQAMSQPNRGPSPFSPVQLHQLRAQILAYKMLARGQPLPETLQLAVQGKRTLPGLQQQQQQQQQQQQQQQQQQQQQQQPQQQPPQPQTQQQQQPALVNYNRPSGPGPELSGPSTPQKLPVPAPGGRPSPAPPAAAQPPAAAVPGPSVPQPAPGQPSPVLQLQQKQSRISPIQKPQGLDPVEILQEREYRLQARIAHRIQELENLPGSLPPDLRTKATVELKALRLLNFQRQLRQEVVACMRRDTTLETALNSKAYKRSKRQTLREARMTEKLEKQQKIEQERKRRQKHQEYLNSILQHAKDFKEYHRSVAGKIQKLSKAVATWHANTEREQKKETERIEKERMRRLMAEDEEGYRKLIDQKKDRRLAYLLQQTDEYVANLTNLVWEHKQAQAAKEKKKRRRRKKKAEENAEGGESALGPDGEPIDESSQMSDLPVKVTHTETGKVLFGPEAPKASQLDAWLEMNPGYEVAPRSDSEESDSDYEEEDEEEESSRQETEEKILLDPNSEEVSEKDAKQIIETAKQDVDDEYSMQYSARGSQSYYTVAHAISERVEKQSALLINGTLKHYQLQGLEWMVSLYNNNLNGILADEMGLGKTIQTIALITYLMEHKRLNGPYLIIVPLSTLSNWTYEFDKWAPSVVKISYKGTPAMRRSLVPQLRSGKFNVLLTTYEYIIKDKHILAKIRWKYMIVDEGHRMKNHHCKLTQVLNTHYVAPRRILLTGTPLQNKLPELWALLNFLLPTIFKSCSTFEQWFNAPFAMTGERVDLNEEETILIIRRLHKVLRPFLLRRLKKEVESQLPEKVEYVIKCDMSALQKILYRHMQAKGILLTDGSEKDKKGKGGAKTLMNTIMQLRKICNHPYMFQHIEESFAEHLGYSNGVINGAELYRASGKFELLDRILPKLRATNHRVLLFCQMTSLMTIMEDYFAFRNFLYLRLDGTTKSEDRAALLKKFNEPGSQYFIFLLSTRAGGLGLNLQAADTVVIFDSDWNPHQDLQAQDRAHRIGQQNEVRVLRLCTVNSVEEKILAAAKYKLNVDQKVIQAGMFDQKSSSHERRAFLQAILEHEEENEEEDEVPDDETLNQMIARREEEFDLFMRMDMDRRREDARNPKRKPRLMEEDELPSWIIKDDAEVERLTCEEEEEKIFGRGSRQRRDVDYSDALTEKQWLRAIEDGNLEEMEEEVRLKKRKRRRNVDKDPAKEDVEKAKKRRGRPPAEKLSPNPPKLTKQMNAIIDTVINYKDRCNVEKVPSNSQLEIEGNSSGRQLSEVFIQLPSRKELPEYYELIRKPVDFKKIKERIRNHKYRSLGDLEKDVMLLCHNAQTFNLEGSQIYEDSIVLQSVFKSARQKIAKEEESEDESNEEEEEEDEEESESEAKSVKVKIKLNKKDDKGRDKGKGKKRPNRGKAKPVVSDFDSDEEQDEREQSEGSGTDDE

| SMILES | BRM HiBit Degradation Maximum (%) (HiBit-BRM fusion protein) | Dmax [1] [%] | DC50 (HiBit-BRM fusion protein) [nM] | DC50 [1] [nM] |
| --- | --- | --- | --- | --- |
| Cc1ncsc1-c1ccc(CNC(=O)[C@@H]2C[C@@H](O)CN2C(=O)[C@@H](NC(=O)CCCCC(=O)N[C@@H]2CCc3[nH]c4nnc(-c5ccccc5O)cc4c3C2)C(C)(C)C)cc1 [Compound 170, N1-((S)-1-((2S,4R)-4-hydroxy-2-((4-(4-methylthiazol-5-yl)benzyl)carbamoyl)pyrrolidin-1-yl)-3,3-dimethyl-1-oxobutan-2-yl)-N6-((R)-3-(2-hydroxyphenyl)-6,7,8,9-tetrahydro-5H-pyridazino[3,4-b]indol-6-yl)adipamide] | C (“C” indicates maximum degradation < 50%) | < 50 | – | – |
| Cc1ncsc1-c1ccc(CNC(=O)[C@@H]2C[C@@H](O)CN2C(=O)[C@@H](NC(=O)CCC(=O)N[C@@H]2CCc3[nH]c4nnc(-c5ccccc5O)cc4c3C2)C(C)(C)C)cc1 [Compound 171, N1-((S)-1-((2S,4R)-4-hydroxy-2-((4-(4-methylthiazol-5-yl)benzyl)carbamoyl)pyrrolidin-1-yl)-3,3-dimethyl-1-oxobutan-2-yl)-N4-((R)-3-(2-hydroxyphenyl)-6,7,8,9-tetrahydro-5H-pyridazino[3,4-b]indol-6-yl)succinamide] | C (“C” indicates maximum degradation < 50%) | < 50 | – | – |
| Cc1ncsc1-c1ccc(CNC(=O)[C@@H]2C[C@@H](O)CN2C(=O)[C@@H](NC(=O)CCCC(=O)N[C@@H]2CCc3[nH]c4nnc(-c5ccccc5O)cc4c3C2)C(C)(C)C)cc1 [Compound 180, N1-((S)-1-((2S,4R)-4-hydroxy-2-((4-(4-methylthiazol-5-yl)benzyl)carbamoyl)pyrrolidin-1-yl)-3,3-dimethyl-1-oxobutan-2-yl)-N5-((R)-3-(2-hydroxyphenyl)-6,7,8,9-tetrahydro-5H-pyridazino[3,4-b]indol-6-yl)glutaramide] | C (“C” indicates maximum degradation < 50%) | < 50 | – | – |
| Cc1ncsc1-c1ccc([C@H](C)NC(=O)[C@@H]2C[C@@H](O)CN2C(=O)[C@@H](c2cc(OCCN[C@@H]3CCc4[nH]c5nnc(-c6ccccc6O)cc5c4C3)no2)C(C)C)cc1 [Compound 181, (2S,4R)-4-hydroxy-1-((R)-2-(3-(2-(((R)-3-(2-hydroxyphenyl)-6,7,8,9-tetrahydro-5H-pyridazino[3,4-b]indol-6-yl)amino)ethoxy)isoxazol-5-yl)-3-methylbutanoyl)-N-((S)-1-(4-(4-methylthiazol-5-yl)phenyl)ethyl)pyrrolidine-2-carboxamide] | A (“A” indicates maximum degradation ≥ 75%) | < 50 | > 100 | – |
| Cc1ncsc1-c1ccc(C(C)NC(=O)C2CC(O)CN2C(=O)C(c2cc(OCCN3CC4C(C3)C4c3c(C)[nH]c4nnc(-c5ccccc5O)cc34)no2)C(C)C)cc1 [Compound 255, (2S,4R)-4-hydroxy-1-((R)-2-(3-(2-((1R,5S,6S)-6-(3-(2-hydroxyphenyl)-6-methyl-7H-pyrrolo[2,3-c]pyridazin-5-yl)-3-azabicyclo[3.1.0]hexan-3-yl)ethoxy)isoxazol-5-yl)-3-methylbutanoyl)-N-((S)-1-(4-(4-methylthiazol-5-yl)phenyl)ethyl)pyrrolidine-2-carboxamide] | A (“A” indicates maximum degradation ≥ 75%) | < 50 | > 10 | > 1000 |
| Cc1ncsc1-c1ccc([C@H](C)NC(=O)[C@@H]2C[C@@H](O)CN2C(=O)[C@@H](c2cc(OCCN3C[C@@H]4[C@H](C3)[C@H]4c3[nH]c4nnc(-c5ccccc5O)cc4c3C)no2)C(C)C)cc1 [Compound 272, (2S,4R)-4-hydroxy-1-((R)-2-(3-(2-((1R,5S,6R)-6-(3-(2-hydroxyphenyl)-5-methyl-7H-pyrrolo[2,3-c]pyridazin-6-yl)-3-azabicyclo[3.1.0]hexan-3-yl)ethoxy)isoxazol-5-yl)-3-methylbutanoyl)-N-((S)-1-(4-(4-methylthiazol-5-yl)phenyl)ethyl)pyrrolidine-2-carboxamide] | A (“A” indicates maximum degradation ≥ 75%) | > 75 | < 10 | > 10 |
| Cc1ncsc1-c1ccc([C@H](C)NC(=O)[C@@H]2C[C@@H](O)CN2C(=O)[C@H](c2cc([C@H]3CC[C@@H](c4cnc(N5CCC(c6c[nH]c7nnc(-c8ccccc8O)cc67)CC5)nc4)CC3)no2)C(C)C)cc1 [Compound 309, (2S,4R)-4-hydroxy-N-[(1S)-1-[4-(4-methyl-1,3-thiazol-5-yl)phenyl]ethyl]-1-[(2S)-3-methyl-2-{3-[(1s,4s)-4-(2-{4-[3-(2-hydroxyphenyl)-7H-pyrrolo[2,3-c]pyridazin-5-yl]piperidin-1-yl}pyrimidin-5-yl)cyclohexyl]-1,2-oxazol-5-yl}butanoyl]pyrrolidine-2-carboxamide] | B (“B” indicates maximum degradation ≥ 50%) | < 50 | > 100 | – |
| Cc1ncsc1-c1ccc([C@H](C)NC(=O)[C@@H]2C[C@@H](O)CN2C(=O)[C@H](c2cc([C@H]3CC[C@H](c4cnc(N5CCC(c6c[nH]c7nnc(-c8ccccc8O)cc67)CC5)nc4)CC3)no2)C(C)C)cc1 [Compound 310, (2S,4R)-4-hydroxy-N-[(1S)-1-[4-(4-methyl-1,3-thiazol-5-yl)phenyl]ethyl]-1-[(2S)-3-methyl-2-{3-[(1r,4r)-4-(2-{4-[3-(2-hydroxyphenyl)-7H-pyrrolo[2,3-c]pyridazin-5-yl]piperidin-1-yl}pyrimidin-5-yl)cyclohexyl]-1,2-oxazol-5-yl}butanoyl]pyrrolidine-2-carboxamide] | A (“A” indicates maximum degradation ≥ 75%) | > 50 | > 10 | > 100 |

— US20240024488A1, “COMPOUNDS AND USES THEREOF” (Foghorn Therapeutics Inc., priority 2020, published 2024)
